According to patent EP4467141A1, “PYRAZOLO-QUINOLINES AS SELECTIVE INHIBITORS OF GENOTOXIC STRESS-INDUCED IKK/NF- KB PATHWAYS FOR CANCER THERAPY” (Max-Delbrück-Centrum für Molekulare Medizin in der …, priority 2023, dated 2024):

What was measured:
Experiment in all cases: Kinase panel study
Assay type in all cases: biochemical
Conditions in all cases: read-out: Percentage of inhibition; for inhibition at 1 µM: 1000nM; for inhibition at 10 µM: 10000nM
CSNK2A2 (CK2 alpha 2) = target: T1, CSNK2A2 (CK2 alpha 2) (Homo sapiens, UniProt P19784)
T1 construct: purchased Thermo Fisher Scientific
T1 sequence (P19784 whole entry): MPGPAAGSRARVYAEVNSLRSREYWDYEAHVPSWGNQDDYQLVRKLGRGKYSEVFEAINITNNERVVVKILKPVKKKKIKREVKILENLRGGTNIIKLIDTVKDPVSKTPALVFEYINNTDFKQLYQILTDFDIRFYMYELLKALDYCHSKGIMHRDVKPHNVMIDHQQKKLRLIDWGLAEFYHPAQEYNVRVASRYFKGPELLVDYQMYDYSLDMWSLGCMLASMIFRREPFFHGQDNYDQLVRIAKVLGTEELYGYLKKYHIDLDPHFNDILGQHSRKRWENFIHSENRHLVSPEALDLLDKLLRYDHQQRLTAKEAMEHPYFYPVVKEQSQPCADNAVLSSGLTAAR
Outline: (§1)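 Readout is percentage kinase inhibition. Testing used 1 µM or 10 µM compound in externally run ZLyte/Adapta in vitro assays, and IC50 values were derived within the same panel.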

EGFR (ErbB1) L861Q = target: T2, EGFR (ErbB1) L861Q (Homo sapiens, UniProt P00533, L861Q)
T2 construct: purchased Thermo Fisher Scientific
T2 sequence (P00533 25-1210 L861Q): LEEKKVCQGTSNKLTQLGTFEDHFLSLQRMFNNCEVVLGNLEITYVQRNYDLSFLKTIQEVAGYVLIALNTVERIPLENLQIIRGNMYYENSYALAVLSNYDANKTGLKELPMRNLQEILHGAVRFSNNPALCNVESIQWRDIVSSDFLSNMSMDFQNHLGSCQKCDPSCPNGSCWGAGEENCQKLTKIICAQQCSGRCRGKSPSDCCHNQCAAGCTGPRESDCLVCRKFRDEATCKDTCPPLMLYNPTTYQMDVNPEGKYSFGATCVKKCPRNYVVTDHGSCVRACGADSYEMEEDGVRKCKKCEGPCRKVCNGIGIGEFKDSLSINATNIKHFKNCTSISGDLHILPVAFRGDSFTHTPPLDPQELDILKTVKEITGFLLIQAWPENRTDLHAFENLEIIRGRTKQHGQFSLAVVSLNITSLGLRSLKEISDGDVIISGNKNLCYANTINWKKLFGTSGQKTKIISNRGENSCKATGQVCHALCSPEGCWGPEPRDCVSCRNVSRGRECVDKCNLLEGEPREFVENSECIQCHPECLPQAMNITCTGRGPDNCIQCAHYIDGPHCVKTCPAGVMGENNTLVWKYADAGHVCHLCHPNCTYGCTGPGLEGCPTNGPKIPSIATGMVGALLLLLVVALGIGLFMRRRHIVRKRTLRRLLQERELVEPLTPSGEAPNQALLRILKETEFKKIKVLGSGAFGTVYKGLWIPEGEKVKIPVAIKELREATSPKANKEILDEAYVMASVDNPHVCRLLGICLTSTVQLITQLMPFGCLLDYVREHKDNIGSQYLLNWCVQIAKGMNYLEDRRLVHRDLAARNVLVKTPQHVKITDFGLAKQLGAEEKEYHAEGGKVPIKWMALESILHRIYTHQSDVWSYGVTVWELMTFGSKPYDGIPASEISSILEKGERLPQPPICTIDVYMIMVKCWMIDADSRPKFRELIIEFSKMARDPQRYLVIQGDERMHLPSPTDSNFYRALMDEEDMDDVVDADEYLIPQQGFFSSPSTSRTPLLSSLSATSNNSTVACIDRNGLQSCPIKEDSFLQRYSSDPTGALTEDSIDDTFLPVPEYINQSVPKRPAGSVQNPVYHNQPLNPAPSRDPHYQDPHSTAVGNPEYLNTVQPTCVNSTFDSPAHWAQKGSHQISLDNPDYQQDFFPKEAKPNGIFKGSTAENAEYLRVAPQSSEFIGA
Outline: as §1

HIPK4 = target: T3, HIPK4 (Homo sapiens, UniProt Q8NE63)
T3 construct: purchased Thermo Fisher Scientific
T3 sequence (Q8NE63 1-616): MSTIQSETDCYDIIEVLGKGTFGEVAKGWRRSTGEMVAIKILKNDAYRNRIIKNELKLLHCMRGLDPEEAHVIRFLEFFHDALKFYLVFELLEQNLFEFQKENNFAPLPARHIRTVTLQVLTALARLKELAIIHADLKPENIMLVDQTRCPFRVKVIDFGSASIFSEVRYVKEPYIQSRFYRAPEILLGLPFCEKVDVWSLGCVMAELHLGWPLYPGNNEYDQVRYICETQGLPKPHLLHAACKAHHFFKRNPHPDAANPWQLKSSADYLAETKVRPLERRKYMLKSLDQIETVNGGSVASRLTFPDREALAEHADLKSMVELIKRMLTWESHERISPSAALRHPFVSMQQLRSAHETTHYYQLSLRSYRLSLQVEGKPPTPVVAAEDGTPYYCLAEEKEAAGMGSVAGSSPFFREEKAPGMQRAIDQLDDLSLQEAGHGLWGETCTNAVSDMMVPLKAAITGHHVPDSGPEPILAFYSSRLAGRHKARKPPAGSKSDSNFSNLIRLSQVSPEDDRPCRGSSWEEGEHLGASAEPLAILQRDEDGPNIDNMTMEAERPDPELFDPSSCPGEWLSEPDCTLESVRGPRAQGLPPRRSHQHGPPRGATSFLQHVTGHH
Outline: as §1

NTRK3 (TRKC) = target: T4, NTRK3 (TRKC) (Homo sapiens, UniProt Q16288)
T4 construct: purchased Thermo Fisher Scientific
T4 sequence (Q16288 32-839): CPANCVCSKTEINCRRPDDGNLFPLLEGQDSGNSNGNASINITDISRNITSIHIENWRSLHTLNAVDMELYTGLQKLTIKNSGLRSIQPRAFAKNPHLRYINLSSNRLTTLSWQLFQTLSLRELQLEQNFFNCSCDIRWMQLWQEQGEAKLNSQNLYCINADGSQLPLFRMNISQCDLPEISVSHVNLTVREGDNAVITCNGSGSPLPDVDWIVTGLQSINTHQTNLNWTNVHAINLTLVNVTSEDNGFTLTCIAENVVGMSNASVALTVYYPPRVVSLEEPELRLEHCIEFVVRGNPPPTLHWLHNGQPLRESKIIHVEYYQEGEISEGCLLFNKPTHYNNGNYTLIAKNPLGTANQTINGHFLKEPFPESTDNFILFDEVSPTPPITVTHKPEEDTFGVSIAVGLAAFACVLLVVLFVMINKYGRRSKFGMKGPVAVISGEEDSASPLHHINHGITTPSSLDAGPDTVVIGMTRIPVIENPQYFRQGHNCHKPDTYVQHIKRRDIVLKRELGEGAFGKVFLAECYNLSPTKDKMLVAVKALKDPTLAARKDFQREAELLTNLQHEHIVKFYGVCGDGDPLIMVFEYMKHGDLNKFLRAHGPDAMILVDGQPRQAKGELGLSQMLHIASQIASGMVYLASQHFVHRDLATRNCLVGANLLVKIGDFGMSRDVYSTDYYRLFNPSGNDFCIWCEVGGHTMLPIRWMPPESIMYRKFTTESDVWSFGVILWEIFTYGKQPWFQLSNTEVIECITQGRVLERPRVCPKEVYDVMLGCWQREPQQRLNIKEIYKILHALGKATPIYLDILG
Outline: as §1

PDGFRA (PDGFR alpha) = target: T5, PDGFRA (PDGFR alpha) (Homo sapiens, UniProt P16234)
T5 construct: purchased Thermo Fisher Scientific
T5 sequence (P16234 24-1089): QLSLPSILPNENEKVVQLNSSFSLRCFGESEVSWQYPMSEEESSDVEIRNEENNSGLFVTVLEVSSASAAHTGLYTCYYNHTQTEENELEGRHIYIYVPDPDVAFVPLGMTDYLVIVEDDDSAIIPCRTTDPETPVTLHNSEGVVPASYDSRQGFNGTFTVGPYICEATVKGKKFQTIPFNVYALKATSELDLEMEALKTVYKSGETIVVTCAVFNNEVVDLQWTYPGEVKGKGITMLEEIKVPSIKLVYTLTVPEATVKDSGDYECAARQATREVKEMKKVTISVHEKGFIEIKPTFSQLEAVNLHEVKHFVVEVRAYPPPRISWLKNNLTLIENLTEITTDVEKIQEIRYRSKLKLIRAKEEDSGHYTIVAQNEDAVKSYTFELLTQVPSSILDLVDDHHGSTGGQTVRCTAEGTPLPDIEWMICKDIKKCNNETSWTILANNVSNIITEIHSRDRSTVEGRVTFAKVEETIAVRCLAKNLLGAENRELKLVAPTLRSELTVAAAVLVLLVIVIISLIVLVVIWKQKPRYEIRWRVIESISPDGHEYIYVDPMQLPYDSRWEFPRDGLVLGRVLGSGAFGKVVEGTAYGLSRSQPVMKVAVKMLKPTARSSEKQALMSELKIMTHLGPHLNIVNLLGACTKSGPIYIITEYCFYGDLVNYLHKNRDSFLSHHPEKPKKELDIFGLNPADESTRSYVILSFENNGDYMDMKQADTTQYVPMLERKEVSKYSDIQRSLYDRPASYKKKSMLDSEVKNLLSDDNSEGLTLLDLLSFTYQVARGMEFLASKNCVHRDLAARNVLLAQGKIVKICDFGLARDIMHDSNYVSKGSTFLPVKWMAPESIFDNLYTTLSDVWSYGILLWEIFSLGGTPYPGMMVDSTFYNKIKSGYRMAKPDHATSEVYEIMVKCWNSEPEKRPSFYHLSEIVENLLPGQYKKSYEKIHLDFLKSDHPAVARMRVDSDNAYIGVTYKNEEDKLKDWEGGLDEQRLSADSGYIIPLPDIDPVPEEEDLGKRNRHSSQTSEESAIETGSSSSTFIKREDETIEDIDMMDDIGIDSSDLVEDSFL
Outline: as §1

PRKD2 (PKD2) = target: T6, PRKD2 (PKD2) (Homo sapiens, UniProt Q9BZL6)
T6 construct: purchased Thermo Fisher Scientific
T6 sequence (Q9BZL6 1-878): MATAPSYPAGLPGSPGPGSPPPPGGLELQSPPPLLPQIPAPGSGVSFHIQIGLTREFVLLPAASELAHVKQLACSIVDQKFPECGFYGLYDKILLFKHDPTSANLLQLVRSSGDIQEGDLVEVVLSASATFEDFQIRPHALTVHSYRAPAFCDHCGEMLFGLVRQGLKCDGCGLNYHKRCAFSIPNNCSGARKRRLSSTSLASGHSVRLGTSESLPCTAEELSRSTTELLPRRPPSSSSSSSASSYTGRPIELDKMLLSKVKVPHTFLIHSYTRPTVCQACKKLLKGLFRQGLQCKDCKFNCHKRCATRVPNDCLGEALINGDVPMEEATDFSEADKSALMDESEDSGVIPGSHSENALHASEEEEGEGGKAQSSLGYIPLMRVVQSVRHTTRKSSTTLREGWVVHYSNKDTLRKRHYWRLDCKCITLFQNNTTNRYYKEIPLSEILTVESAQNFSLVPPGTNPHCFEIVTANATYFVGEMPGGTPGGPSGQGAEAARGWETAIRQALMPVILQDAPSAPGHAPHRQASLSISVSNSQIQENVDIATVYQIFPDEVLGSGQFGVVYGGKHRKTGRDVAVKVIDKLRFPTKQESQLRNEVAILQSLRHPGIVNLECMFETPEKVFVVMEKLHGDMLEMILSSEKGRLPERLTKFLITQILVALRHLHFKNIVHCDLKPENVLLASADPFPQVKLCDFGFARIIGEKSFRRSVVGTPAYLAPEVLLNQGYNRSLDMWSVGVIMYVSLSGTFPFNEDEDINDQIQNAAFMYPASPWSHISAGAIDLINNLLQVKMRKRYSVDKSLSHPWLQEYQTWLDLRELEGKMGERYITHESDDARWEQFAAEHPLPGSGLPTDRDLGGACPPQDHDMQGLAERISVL
Outline: as §1

SPHK1 = target: T7, SPHK1 (Homo sapiens, UniProt Q9NYA1)
T7 construct: purchased Thermo Fisher Scientific
T7 sequence (Q9NYA1 whole entry): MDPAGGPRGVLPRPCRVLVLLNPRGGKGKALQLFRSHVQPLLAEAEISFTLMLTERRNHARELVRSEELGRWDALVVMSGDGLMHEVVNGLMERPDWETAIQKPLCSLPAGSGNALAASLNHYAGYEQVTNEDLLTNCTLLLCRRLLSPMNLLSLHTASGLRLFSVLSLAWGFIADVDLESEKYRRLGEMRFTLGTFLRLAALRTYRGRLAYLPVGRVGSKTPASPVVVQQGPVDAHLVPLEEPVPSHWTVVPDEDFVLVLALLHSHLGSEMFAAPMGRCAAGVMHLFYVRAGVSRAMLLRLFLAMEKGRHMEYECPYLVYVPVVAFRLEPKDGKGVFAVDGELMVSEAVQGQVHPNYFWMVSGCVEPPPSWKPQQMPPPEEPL
Outline: as §1

For `COc1ccc2c(c1OC)c(=O)n1c3ccc(O)cc3c3ccnc2c31` [MW01, 5-Hydroxy-10,11-dimethoxy-9H-benzo[c]indolo[3,2,1-ij][1,5]naphthyridin-9-one], the inhibition at 1 µM (CSNK2A2 (CK2 alpha 2)) was 16%, the inhibition at 10 µM (CSNK2A2 (CK2 alpha 2)) was 29% and the inhibition at 1 µM (EGFR (ErbB1) L861Q) was -9%. It also gave an inhibition at 10 µM (EGFR (ErbB1) L861Q) of 8%, an inhibition at 1 µM (HIPK4) of 42% and an inhibition at 10 µM (HIPK4) of 62%. For the same molecule, the inhibition at 1 µM (NTRK3 (TRKC)) was 42%, the inhibition at 10 µM (NTRK3 (TRKC)) was 66% and the inhibition at 1 µM (PDGFRA (PDGFR alpha)) was 20%. It also gave an inhibition at 10 µM (PDGFRA (PDGFR alpha)) of 47%, an inhibition at 1 µM (PRKD2 (PKD2)) of 38% and an inhibition at 10 µM (PRKD2 (PKD2)) of 71%. It also gave an inhibition at 1 µM (SPHK1) of -7% and an inhibition at 10 µM (SPHK1) of -3%.
With `COc1ccc2cc3c(N)nn(C(=O)c4cccc(N(C)C)c4)c3nc2c1` [MW05, (3-Amino-7-methoxypyrazolo[3,4-b]quinolin-1-yl)-[3-(dimethylamino)phenyl]methanone] the inhibition at 1 µM (CSNK2A2 (CK2 alpha 2)) was 7%, the inhibition at 10 µM (CSNK2A2 (CK2 alpha 2)) was 4% and the inhibition at 1 µM (EGFR (ErbB1) L861Q) was -6%. The inhibition at 10 µM (EGFR (ErbB1) L861Q) was -18%, the inhibition at 1 µM (HIPK4) was 12% and the inhibition at 10 µM (HIPK4) was 8%. It also gave an inhibition at 1 µM (NTRK3 (TRKC)) of 10%, an inhibition at 10 µM (NTRK3 (TRKC)) of 11% and an inhibition at 1 µM (PDGFRA (PDGFR alpha)) of 7%. It also gave an inhibition at 10 µM (PDGFRA (PDGFR alpha)) of 6%, an inhibition at 1 µM (PRKD2 (PKD2)) of 11% and an inhibition at 10 µM (PRKD2 (PKD2)) of 10%. It also gave an inhibition at 1 µM (SPHK1) of -2% and an inhibition at 10 µM (SPHK1) of 1%.
